According to US20240109936A1, “NOVEL M[…] PEPTIDES” (University of Florida Research Foundation, Incorporated, priority 2020, published 2024):
Where a SMILES comes first, the peptide text is derived from it.

Key:
κ opioid receptor = biological target: T1, κ opioid receptor (Mus musculus, UniProt P33534); details: non-peptide KOR antagonists; cited from earlier work
T1 construct: host or cells: living animal (CNS), endogenous receptor

mice [1] = assay: Naloxone precipitated withdrawal (jumping behavior) in morphine-treated mice; type: in vivo, mouse; details: five days of morphine injections; 30 mg/kg, p.o. 1 hour prior to naloxone (10 mg/kg, s.c.); FIG. 35
Procedure: For naloxone precipitated withdrawal or 2-bottle choice (TBC) assay testing are conducted essentially as described for example in Wilson L L, Harris H M, Brice-Tutt A C, Cirino T J, Eans S O, Stacy H M, Simons C A, Sharma A, Leon J F, Boyer E W, Avery B A, McLaughlin J P, McCurdy C M: Lyophilized Kratom tea as a therapeutic option for opioid dependence. Drug and Alcohol Dependence, 216:108310-108318, 2020. https://doi.org/10.1016/j.drugalcdep.2020.108310; and as follows;

mice [2] = assay: Reinstatement of extinguished morphine conditioned place preference (forced swim stress- or morphine-induced); type: in vivo, mouse; details: 30 mg/kg, p.o., FIG. 34
mice [3] = details: 3930 alone; place conditioning daily for 2 days; FIG. 33
Procedure: For conditioned place preference assay/reinstatement testing are conducted essentially as described for example in Brice-Tutt A C, Wilson L L, Eans S O, Stacy H M, Simons C A, Simpson G G, Coleman J S, Ferracane M J, Aldrich J V, McLaughlin J P: Multifunctional opioid receptor agonism and antagonism by a novel macrocyclic tetrapeptide prevents reinstatement of morphine-seeking behavior. British Journal of Pharmacology, 177(18):4209-4222, 2020. doi: 10.1111/bph.15165.

mice [4] = assay: Forced swim stress-induced increase in morphine consumption, two-bottle choice assay; type: in vivo, mouse; details: orally administered, FIG. 13

T1 sequence (P33534 whole entry): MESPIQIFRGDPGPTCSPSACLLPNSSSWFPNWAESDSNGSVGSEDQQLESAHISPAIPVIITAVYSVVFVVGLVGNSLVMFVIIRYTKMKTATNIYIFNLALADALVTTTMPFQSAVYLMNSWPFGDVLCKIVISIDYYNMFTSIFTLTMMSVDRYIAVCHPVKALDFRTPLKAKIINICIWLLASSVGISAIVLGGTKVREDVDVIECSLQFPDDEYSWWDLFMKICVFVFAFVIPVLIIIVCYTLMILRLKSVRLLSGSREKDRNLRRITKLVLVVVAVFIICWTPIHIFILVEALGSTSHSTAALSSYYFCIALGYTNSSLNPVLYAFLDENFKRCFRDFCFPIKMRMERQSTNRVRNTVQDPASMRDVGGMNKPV

## N=C(N)Nc1ccc2[nH]c3c(c2c1)C[C@@]1(O)[C@H]2Cc4ccc(O)c5c4[C@@]1(CCN2CC1CC1)[C@H]3O5 [5-guanidinylnaltrindole]
κ opioid receptor
  duration of antagonism: unusually long duration of antagonism

## CC(C)[C@@H](CN1CC[C@@](C)(c2cccc(O)c2)[C@@H](C)C1)NC(=O)[C@H]1Cc2ccc(O)cc2CN1 [JDTic]
κ opioid receptor
  duration of antagonism: unusually long duration of antagonism

## O=C1N[C@H](Cc2ccccc2C(F)(F)F)C(=O)N[C@@H](Cc2ccccc2)C(=O)N2CCC[C@@H]2C(=O)N[C@H]1Cc1ccccc1 [compound 3930, cyclo[Phe-D-Pro-Phe-D-Phe(2-CF3)]] (HELM PEPTIDE1{F.[dP].F.[O=C([C@@H](Cc1ccccc1C(F)(F)F)N[*:1])[*:2]]}$PEPTIDE1,PEPTIDE1,1:R1-4:R2$$$V2.0)
Mice [1]
  frequency of jumping behavior following administration of naloxone: significantly reduced instances of jumping behavior
Mice [2]; administered 5 min or 2.5 hr prior to FSS exposure
  stress- (forced swim stress, FSS) induced reinstatement of extinguished morphine-CPP: prevented stress-induced reinstatement of place preference
Mice [2]; administered 5 min prior to additional round of morphine-place conditioning
  drug-seeking behavior after an additional round of morphine-place conditioning: no significant effect on drug-seeking behavior
Mice [3]
  conditioned place preference or aversion: did not produce conditioned place preference or aversion
Mice [4]
  stress-induced increase in consumption of a morphine solution: can prevent a stress-induced increase in consumption of a morphine solution

## Oc1ccc2c3c1O[C@H]1c4[nH]c5c(c4C[C@@]4(O)[C@@H](C2)N(CC2CC2)CC[C@]314)C[C@@]1(O)[C@H]2Cc3ccc(O)c4c3[C@@]1(CCN2CC1CC1)[C@H]5O4 [nor-binaltorphimine]
κ opioid receptor
  duration of antagonism: unusually long duration of antagonism
